Laboratory results published in ChEMBL document CHEMBL1201862, “PubChem BioAssay data set” (2004).
Calls of active or inactive are those of the source.

Experiments:
Mucolipin-3 = Mucolipin-3 (Homo sapiens, UniProt Q8TDD5); assay: Dose response cell-based high-throughput screening assay for agonists of the transient receptor potential channel ML3 (TRPML3). [Related pubchem assays: 1526, 1424, 1448 ]; format: functional
Ion channel NompC = Ion channel NompC (Danio rerio, UniProt Q7T1G6); assay: Fluorescence counterscreen assay for TRPML3 agonists: dose response cell-based high-throughput screening assay to identify agonists of the transient receptor potential channel N1 (TRPN1). [Related pubchem assays: 1526, 1424, 1448 ]; format: functional
[1] = biological target: T1, Corticotropin-releasing factor receptor 2/Corticotropin-releasing factor-binding protein (Homo sapiens, UniProt P24387+Q13324); assay: Dose Response confirmation of uHTS hits for small molecule antagonists of the CRF-binding protein and CRF-R2 receptor complex.; format: functional; settings: read-out: IC50_Mean
T1 sequence (Q13324 whole entry): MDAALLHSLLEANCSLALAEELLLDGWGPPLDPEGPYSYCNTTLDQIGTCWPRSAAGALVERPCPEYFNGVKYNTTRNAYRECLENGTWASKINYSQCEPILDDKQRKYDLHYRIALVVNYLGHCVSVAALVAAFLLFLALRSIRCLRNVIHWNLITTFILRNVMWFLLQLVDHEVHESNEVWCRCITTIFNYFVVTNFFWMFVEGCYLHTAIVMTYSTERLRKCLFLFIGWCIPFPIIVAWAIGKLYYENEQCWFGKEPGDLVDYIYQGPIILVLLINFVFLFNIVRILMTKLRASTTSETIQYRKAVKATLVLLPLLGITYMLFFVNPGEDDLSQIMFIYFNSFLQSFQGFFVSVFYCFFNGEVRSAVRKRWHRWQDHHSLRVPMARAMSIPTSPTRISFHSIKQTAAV
T1 sequence (P24387 whole entry): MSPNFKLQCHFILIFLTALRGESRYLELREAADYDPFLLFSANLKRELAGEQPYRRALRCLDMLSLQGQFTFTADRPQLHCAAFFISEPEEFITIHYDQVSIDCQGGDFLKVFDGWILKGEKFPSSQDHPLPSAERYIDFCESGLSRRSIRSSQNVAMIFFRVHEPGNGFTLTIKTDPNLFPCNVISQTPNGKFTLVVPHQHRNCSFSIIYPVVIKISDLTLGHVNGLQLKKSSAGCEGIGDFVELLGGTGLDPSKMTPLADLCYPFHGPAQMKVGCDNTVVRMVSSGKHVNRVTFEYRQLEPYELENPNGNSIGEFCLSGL

[2] = biological target: T1, Corticotropin-releasing factor receptor 2/Corticotropin-releasing factor-binding protein; assay: activators of CRF receptor 2 with binding protein – uHTS hits, confirmation (AID 602473); format: functional; settings: read-out: EC50_Mean
[3] = CRF-BP/CRF-R2 complex antagonists, dose response, cell-based, uHTS hits, 384-well (AID 651639); format: functional, Homo sapiens; settings: read-out: IC50_Mean
[4] = HIV-1 Env-mediated cell fusion inhibitors, dose response, CCR5-tropic Env (AID 2279); format: functional
Genome polyprotein = Genome polyprotein (dengue virus type 2, UniProt P29990); assay: Dengue-2 NS5 methyltransferase inhibitors, primary screen, biochemical, confirmation dose response (AID 588689); format: functional
[5] = inhibitors of Bluetongue virus cytopathic effect, confirmation, arbovirus, BSR cells (AID 1250); format: functional;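 also: protection from viral cytopathic effect measured as cell viability by ATP luminescence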

Chain of Mucolipin-3 (Q8TDD5 whole entry): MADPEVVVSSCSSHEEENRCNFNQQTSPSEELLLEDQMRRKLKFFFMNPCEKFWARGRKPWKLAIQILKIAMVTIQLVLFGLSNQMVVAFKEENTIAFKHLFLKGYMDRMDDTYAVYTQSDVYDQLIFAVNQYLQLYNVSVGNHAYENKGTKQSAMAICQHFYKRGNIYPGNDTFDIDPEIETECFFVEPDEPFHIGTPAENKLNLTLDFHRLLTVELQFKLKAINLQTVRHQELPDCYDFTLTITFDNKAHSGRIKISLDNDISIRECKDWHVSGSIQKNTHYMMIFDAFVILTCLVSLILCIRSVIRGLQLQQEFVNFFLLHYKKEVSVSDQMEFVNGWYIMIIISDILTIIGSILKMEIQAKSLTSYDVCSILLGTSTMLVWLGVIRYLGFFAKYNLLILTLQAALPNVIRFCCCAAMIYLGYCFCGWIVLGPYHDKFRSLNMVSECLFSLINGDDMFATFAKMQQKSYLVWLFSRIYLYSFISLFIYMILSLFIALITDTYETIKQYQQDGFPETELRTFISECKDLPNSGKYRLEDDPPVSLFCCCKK
Chain of Genome polyprotein (P29990 2492-3391 limits assumed): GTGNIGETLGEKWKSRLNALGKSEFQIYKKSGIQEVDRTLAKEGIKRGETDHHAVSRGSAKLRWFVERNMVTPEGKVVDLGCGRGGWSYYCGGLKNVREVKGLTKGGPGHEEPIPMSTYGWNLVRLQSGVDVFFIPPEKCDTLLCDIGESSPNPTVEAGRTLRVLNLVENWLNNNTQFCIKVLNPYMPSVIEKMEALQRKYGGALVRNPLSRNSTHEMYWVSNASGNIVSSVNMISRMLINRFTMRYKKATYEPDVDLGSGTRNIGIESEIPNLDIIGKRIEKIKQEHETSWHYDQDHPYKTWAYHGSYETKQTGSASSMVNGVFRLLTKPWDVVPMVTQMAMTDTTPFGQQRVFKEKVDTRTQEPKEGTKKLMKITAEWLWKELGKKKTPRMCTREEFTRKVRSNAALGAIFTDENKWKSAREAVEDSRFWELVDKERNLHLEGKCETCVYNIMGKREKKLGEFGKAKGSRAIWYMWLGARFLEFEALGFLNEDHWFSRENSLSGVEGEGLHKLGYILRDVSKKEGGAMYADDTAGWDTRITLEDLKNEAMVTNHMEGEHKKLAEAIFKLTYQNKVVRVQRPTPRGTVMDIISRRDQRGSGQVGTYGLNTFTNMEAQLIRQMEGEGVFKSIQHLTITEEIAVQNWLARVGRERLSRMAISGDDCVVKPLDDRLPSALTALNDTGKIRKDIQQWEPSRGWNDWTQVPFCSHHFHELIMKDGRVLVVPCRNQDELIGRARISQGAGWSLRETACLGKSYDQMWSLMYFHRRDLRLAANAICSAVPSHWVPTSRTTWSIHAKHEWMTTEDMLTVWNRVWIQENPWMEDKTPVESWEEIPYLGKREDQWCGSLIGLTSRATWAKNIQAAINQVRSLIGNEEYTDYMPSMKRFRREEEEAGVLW
Chain of Ion channel NompC (Q7T1G6 whole entry): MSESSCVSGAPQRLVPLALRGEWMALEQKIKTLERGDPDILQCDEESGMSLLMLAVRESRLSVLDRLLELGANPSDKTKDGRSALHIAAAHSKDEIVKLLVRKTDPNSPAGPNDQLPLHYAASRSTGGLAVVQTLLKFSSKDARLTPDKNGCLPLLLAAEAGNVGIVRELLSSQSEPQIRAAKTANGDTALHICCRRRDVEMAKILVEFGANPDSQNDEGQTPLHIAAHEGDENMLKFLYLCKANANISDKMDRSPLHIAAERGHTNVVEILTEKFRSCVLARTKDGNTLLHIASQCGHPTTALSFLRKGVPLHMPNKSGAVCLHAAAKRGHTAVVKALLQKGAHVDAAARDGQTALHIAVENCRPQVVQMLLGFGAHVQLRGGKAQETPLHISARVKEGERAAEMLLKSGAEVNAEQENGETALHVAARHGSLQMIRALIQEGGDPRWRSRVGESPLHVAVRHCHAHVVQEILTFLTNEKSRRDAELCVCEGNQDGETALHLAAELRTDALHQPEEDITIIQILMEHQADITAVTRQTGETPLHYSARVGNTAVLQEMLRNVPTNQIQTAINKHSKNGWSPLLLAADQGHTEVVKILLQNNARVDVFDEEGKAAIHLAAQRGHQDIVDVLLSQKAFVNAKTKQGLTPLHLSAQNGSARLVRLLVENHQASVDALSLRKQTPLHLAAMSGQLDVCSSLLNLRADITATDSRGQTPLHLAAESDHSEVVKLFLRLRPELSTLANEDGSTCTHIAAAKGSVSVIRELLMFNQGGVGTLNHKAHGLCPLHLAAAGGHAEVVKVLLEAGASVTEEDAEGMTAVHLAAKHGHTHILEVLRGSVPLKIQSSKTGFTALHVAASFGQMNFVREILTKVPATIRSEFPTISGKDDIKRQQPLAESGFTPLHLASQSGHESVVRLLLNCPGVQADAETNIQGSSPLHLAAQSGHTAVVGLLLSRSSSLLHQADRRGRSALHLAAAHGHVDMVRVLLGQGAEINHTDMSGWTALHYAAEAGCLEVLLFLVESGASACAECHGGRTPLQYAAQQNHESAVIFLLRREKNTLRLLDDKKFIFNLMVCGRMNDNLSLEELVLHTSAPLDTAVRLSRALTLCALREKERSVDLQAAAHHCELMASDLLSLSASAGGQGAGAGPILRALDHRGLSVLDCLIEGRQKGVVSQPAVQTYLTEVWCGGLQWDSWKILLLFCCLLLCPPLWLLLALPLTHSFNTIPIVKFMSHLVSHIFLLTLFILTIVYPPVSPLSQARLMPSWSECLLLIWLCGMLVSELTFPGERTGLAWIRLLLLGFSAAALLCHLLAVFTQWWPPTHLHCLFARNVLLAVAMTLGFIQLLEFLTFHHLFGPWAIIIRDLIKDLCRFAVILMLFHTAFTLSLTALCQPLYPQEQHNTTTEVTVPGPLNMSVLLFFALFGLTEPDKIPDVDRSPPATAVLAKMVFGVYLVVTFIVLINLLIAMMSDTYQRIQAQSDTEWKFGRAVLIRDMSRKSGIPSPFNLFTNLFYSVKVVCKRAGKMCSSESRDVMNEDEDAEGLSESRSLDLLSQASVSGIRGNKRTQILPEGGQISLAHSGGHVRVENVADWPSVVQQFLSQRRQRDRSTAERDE

Structure (SMILES): Cc1ccc(S(=O)(=O)N2CCCCCC2)cc1[N+](=O)[O-]
- EC50 (Mucolipin-3): 5.29 µM (active)
- EC50 (Ion channel NompC): > 29.9 µM (not active)
- IC50 [1]: 18.3 µM (active)
- EC50 [2]: > 53 µM (inactive)
- IC50 [3]: > 20 µM (inactive)

Structure (SMILES): CCCOc1cccc(C2C(C(=O)c3cc4ccccc4o3)=C(O)C(=O)N2c2cc(C)on2)c1 (stereo not drawn)
- IC50 [4]: 44.5 µM (active)
- IC50 (Genome polyprotein): 32.6 µM (active)

Structure (SMILES): Cc1ccc(C)c(S(=O)(=O)N2CCN(C(C)C(=O)Nc3ccccc3-c3ccccc3)CC2)c1 (stereo not drawn)
- IC50 [5]: 44.1 µM (active)
